Reference: patent US20250381269A1, “BISPECIFIC ANTIBODY BINDING EGFR AND B7-H3” (FORTVITA BIOLOGICS (SINGAPORE) PTE. LTD., priority 2022, published 2025)

How the values were obtained:
Colo-680N = test: Proliferation inhibition experiment, Colo-680N (HNSCC); format: cell-based; details: EGFR WT, KRAS WT
Procedure: (§1) • (1) NSCLC: plated at 1500-2500 cells/100 μL in a 96-well low-adsorption plate (Corning, CLS7007-24EA) for 3D cell culture, in which the following cell lines and specific amounts were used: • NSCLC: 2000 cells/100 μL/well • NCI-H292: Cell Bank of the Chinese Academy of Sciences, SCSP-582 • NCI-H322: Cobioer, CBP60134 • NCI-H1650: ATCC, CRL-5883 • NCI-H1975: ATCC, CRL-5908 • SK-MES-1: CoBioer, CBP60152 • NCI-H1703: ATCC, HTB-43 • PC9+hB7H3: constructed as described above • CRC and HNSCC: plated at 1500-2000 cells/100 μL in a 96-well white-bottom plate (NUNC, 136101) for 2D cell culture, in which the following cell lines and specific amounts were used: • CRC: 1500 cells/100 μL/well • CCK-81: CoBioer, CBP60581 • HT-55: CoBioer, CBP60012 • H508: CoBioer, CBP60795 • LS180: CoBioer, CBP60034 • HNSCC: 1500 cells/100 μL/well • TE-1: CoBioer, CBP60655 • Colo680: CoBioer, CBP60452. (2) The antibody molecules prepared in advance by dilution were added to the corresponding cell well plate, mixed well, and cultured in an incubator at 37° C. with 5% CO2 for 5 days. • (3) After 5 days of continuous culture for proliferation inhibition assay, the Cell-Titer reagent (Promega, G7572) prepared in advance was added to cell wells, the plate was left to stand at room temperature for 15-25 min in the dark, and then CRC and HNSCC cells were directly detected by a multimode microplate reader (Molecular Devices, Spectra MAXi3). • (4) NSCLC: Cell-Titer and the cell mixture were transferred to a 96-well white-bottom plate (NUNC, 136101) and detected by a multimode microplate reader (Molecular Devices, Spectra MAXi3).

H1975 = test: Proliferation inhibition experiment, H1975 (NSCLC); format: cell-based; details: EGFR L858R T790M, KRAS WT
Procedure: as §1

SK-MES-1 = test: Proliferation inhibition experiment, SK-MES-1 (NSCLC); format: cell-based; details: EGFR Amplification, KRAS WT
Procedure: as §1

H1703 [1] = test: Proliferation inhibition experiment, H1703 (NSCLC); format: cell-based; details: H1703, EGFR Amplification, KRAS WT
Procedure: as §1

H322 = test: ADCC report assay, H322; format: cell-based; details: EGFR WT, KRAS WT, effector/target 10:1, 20 h
Procedure: (§2) In the ADCC report assay, ADCC effector cells ((Promega, G7102)) are engineered cells in which FcRIIIa (V158) receptor is overexpressed into Jurkat T cells, which rapidly respond to ADCC through the NFAT-RE driving element within the Jurkat T cells.
(§3) • (1) Tumor cells (cell lines listed in Table 3) and ADCC effector cells (Promega, G7102) were mixed well (1.5E4 cells: 1.5E5 cells/well/100 μL (1.5E5: 1.5E6 cells/mL)) according to an effector/target ratio (10:1), and added to a 96-well white plate (NUNC, 136101). • (2) The antibody molecules prepared in advance by dilution were added to the corresponding cell well plates, mixed well, and cultured at 37° C. with 5% CO2 for 20 h. • (3) The Bio-glo reagent (Promega, G755B) prepared in advance was added to the cell well plate, the plate was left to stand at room temperature for 10-15 min in the dark, and then the cells were detected by a multimode microplate reader (Molecular Devices, Spectra MAXi3).

H1650 = test: ADCC report assay, H1650; format: cell-based; details: EGFR Amplification Del19, KRAS WT, effector/target 10:1, 20 h
Procedure: as §2, §3

H1703 [2] = test: ADCC report assay, H1703; format: cell-based; details: EGFR Amplification, KRAS WT, effector/target 10:1, 20 h
Procedure: as §2, §3

H358 = test: ADCC report assay, H358; format: cell-based; details: EGFR WT, KRAS G12C, effector/target 10:1, 20 h
Procedure: as §2, §3

[3] = system: SK-MES-1 tumor-bearing mice; test: Anti-tumor efficacy in SK-MES-1 tumor-bearing mice, 1 mg/kg single dose; format: in vivo; details: SK-MES-1, Balb/c Nude mice, day 24; for Tumor volume (mm^3): 1 mg/kg i.p. single dose on day 6; for Complete response rate / Tumor growth inhibition (%): 1 mg/kg i.p. single dose; for Complete response rate: 7 mice per group; for Tumor growth inhibition (%): vs h-IgG 1 mg/kg
Text: SPF female Balb/c Nude mice (purchased from Beijing Vital River Laboratory Animal Technology Co., Ltd.) with certificate No. 110011211108966881 were used in the experiment.
SK-MES-1 cells were routinely subcultured for the subsequent in-vivo experiment. The cells were collected by centrifugation. Then the SK-MES-1 cells were resuspended in an equal-proportion mixture of PBS (1×) and Matrigel Matrix (Corning) to prepare a cell suspension with a cell concentration of 20×10^6 cells/mL. On day 0, 0.2 mL of the cell suspension was taken and subcutaneously inoculated to the right abdominal area of Balb/c Nude mice to establish SK-MES-1 tumor-bearing mouse models.
Six days after the tumor cell inoculation, the tumor volume in each mouse was measured. The mice were grouped (with 7 mice in each group).
Administration was performed once on day 6 after the inoculation of SK-MES-1 cells. Mice were monitored for tumor volume and body weight twice a week.
Tumor volume measurement: The maximum length of major axis (L) and maximum length of minor axis (W) of tumors were measured with a vernier caliper, and tumor volume was calculated by the following formula: V=L×W^2/2. The mice were weighed using an electronic balance.

Substance | Max inhibition (%) Mean ± SD (Colo-680N) [%] | IC50 (Colo-680N; 2D culture, 5 days) [pM] | Max inhibition (%) Mean ± SD (H1975) [%] | IC50 (H1975; 3D culture, 5 days) [pM] | Max inhibition (%) Mean ± SD (SK-MES-1) [%] | IC50 (SK-MES-1; 3D culture, 5 days) [pM] | Max inhibition (%) Mean ± SD (H1703 [1]) [%] | IC50 (H1703 [1]; 3D culture, 5 days) [pM] | EC50 (H322) [pM] | EC50 (H1650) [pM] | EC50 (H1703 [2]) [pM] | EC50 (H358) [pM] | Tumor volume (mm^3) [3] [mm^3] | Complete response rate [3] | Tumor growth inhibition (%) [3] [%]
amivantamab [JNJ372] | 26.5 ± 2.2 | 25500 | 47.9 ± 3.0 | 5670 | 66.1 ± 3.7 | 9820 | 44.3 ± 3.4 | 700 | 106 | 102 | 119 | 18 | 87 | 0/7 | 122
zalutumumab [Zalu mAb] | 24.9 ± 1.1 | – | 51.0 ± 2.3 | – | 67.8 ± 4.1 | – | 45.6 ± 3.8 | – | 6 | 21 | 7 | 4 | 23 | 2/7 | 145
